Test results published in patent US7067486B2, “Acetylcholinesterase-derived peptides and uses thereof” (priority 1999, dated 2006).

How the values were obtained:
[1] = test system: CD34^+ cells; test: BrdU incorporation into CD34+ cells (cell proliferation); assay type: cell-based, human; settings: peptide 2 nM, cord blood CD34+ cells
Source text: Cell Source: UCB was collected, following informed consent of the parents and with the approval of the Sourasky Medical Center Ethics Committee, as previously described [Grisaru et al. (1999a) Am. J. Obstet. Gynecol, 180, 1240–1243]. Following 1:1 (v/v) dilution in Iscove's modified Dulbecco medium (IMDM, Beit Haemek, Israel), mononuclear cells were separated using 3% gelatin (Difco, Detroit, Mich.) and Ficoll-Hypaque gradients (<1.077 g/ml; Pharmacia, Uppsala, Sweden) [Pick et al. (1998) Br. J. Haematol. 103, 639–50]. CD34^+ cells were enriched using CD34 immunoglobulin-coated magnetic beads (CD34 progenitor cell selection system, Dynal, Norway).CD34^+ cells analysis was performed by flow cytometry (Becton Dickinson Immunocytochemistry System Inc., San Jose, Calif.), using CD34-PE (Becton Dickinson Immunocytometry System, Inc.) and CD45-FITC (Dako, Glostrup, Denmark) monoclonal antibodies. […] Liquid Cultures: UCB CD34^+ cells were set for liquid cultures at a concentration of 10^5/mL in IMDM, containing 10% autologous plasma, 2 mM L-glutamine (Sigma Chemical Co., St Louis, Mo.), penicillin ([…]), streptomycin ([…]), amphotericin B (2×10^−5 M) (Sigma Chemical Co.), and heparin (20 IU/mL, Gibco, Grand Island, N.Y.), all in a fully humidified atmosphere at 37° C. and 5% CO2. The following elements were added where noted: • 1. Hematopoietic growth factors: Interleukin 3 (IL3, 5 ng/mL, Immunex, Seattle, Wash.), interleukin 6 (IL6, 50 ng/mL, R&D Systems, Minneapolis, Minn.), TPO (1 ng/mL, R&D Systems), stem cell factor (SCF, 10 ng/mL, R&D Systems), FLT-3 ligand (FLT3, 50 ng/mL, R&D Systems), granulocyte-macrophage colony stimulating factor (GM-CSF, 50 ng/mL, Biogenesis Ltd, Bournemouth, UK) and combinations of the above, for 24 hr to 28 days (supplemented every 4 days). • 2. […] AChE C-terminal peptides: The following C-terminal peptides of the AChE synaptic (ASP, also denoted SEQ ID: No. 2) and readthrough (ARP, also denoted SEQ ID: No. 1) isoforms were synthesized using a 433A peptide synthesizer (PE Applied Biosystems, Inc., Norwalk, Conn.). • ASP: 1-[…]-40, also denoted as SEQ ID: No. 2. • ARP: 1-[…]-26, also denoted as SEQ ID: No. 1.
[…] Twenty-eight day liquid cultures were sampled every 6–8 days for viable cell counting (using trypan blue dye exclusion), cell phenotyping (CD34^+, CD33^+ and CD41^+ quantification using flow cytometry, with CD34-PE, CD33-FITC (Immunotech/Coulter, Hialeah, Fla.), CD41-FITC (Immunoquality Products, Groningen, Netherlands) and CD45-FITC monoclonal antibodies), and growth of progenitor colony (granulocyte-macrophage and megakaryocytic), using previously described techniques (Pick et al. (1998) id ibid.). […]

[2] = test system: CD34^+ cells; test: Viable cell expansion in CD34+ liquid cultures (trypan blue exclusion); assay type: cell-based, human
Source text: Cell Source: UCB was collected, following informed consent of the parents and with the approval of the Sourasky Medical Center Ethics Committee, as previously described [Grisaru et al. (1999a) Am. J. Obstet. Gynecol, 180, 1240–1243]. Following 1:1 (v/v) dilution in Iscove's modified Dulbecco medium (IMDM, Beit Haemek, Israel), mononuclear cells were separated using 3% gelatin (Difco, Detroit, Mich.) and Ficoll-Hypaque gradients (<1.077 g/ml; Pharmacia, Uppsala, Sweden) [Pick et al. (1998) Br. J. Haematol. 103, 639–50]. CD34^+ cells were enriched using CD34 immunoglobulin-coated magnetic beads (CD34 progenitor cell selection system, Dynal, Norway).CD34^+ cells analysis was performed by flow cytometry (Becton Dickinson Immunocytochemistry System Inc., San Jose, Calif.), using CD34-PE (Becton Dickinson Immunocytometry System, Inc.) and CD45-FITC (Dako, Glostrup, Denmark) monoclonal antibodies. […] Liquid Cultures: UCB CD34^+ cells were set for liquid cultures at a concentration of 10^5/mL in IMDM, containing 10% autologous plasma, 2 mM L-glutamine (Sigma Chemical Co., St Louis, Mo.), penicillin ([…]), streptomycin ([…]), amphotericin B (2×10^−5 M) (Sigma Chemical Co.), and heparin (20 IU/mL, Gibco, Grand Island, N.Y.), all in a fully humidified atmosphere at 37° C. and 5% CO2. The following elements were added where noted: • 1. Hematopoietic growth factors: Interleukin 3 (IL3, 5 ng/mL, Immunex, Seattle, Wash.), interleukin 6 (IL6, 50 ng/mL, R&D Systems, Minneapolis, Minn.), TPO (1 ng/mL, R&D Systems), stem cell factor (SCF, 10 ng/mL, R&D Systems), FLT-3 ligand (FLT3, 50 ng/mL, R&D Systems), granulocyte-macrophage colony stimulating factor (GM-CSF, 50 ng/mL, Biogenesis Ltd, Bournemouth, UK) and combinations of the above, for 24 hr to 28 days (supplemented every 4 days). • 2. Endothlial Growth factors: Epidermal growth factor (EGF 10 ng/ml, Sigma Chemical Co.), basic Fibroblast growth factor (bFGF 20 ng/ml, Sigma Chemical Co.) incubated in a serum free medium (SFM) for 48 hr. • 3. […] AChE C-terminal peptides: The following C-terminal peptides of the AChE synaptic (ASP, also denoted SEQ ID: No. 2) and readthrough (ARP, also denoted SEQ ID: No. 1) isoforms were synthesized using a 433A peptide synthesizer (PE Applied Biosystems, Inc., Norwalk, Conn.). • ASP: 1-[…]-40, also denoted as SEQ ID: No. 2. • ARP: 1-[…]-26, also denoted as SEQ ID: No. 1. […]

ASP (DTLDEAERQWKAEFHRWSSYMVHWKNQFDHYSKQDRCSDL)
BrdU incorporation values ([1]; 16 hrs post-plating): 0.095 ± 0.004 | BrdU incorporation values ([1]; 24 hrs post-plating): 0.182 ± 0.018 | BrdU incorporation values ([1]; 36 hrs post-plating): 0.260 ± 0.022 | Total viable cells ([2]; day 14, seeded at 50,000 cells/well, ARP 2 nM, cortisol 1.2 μM, ASP 2 nM, SCF 50 ng/ml, AS1 20 pM, PBAN 2 nM): 100.0 cells per culture × 10^−3 | promotion of cell expansion compared with ARP ([2]; similar doses, alone or with cytokines, 2 weeks): less effective than ARP
